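Method: 48-hour compound exposure of cells in 96-well plates, five concentrations, linear interpolation of endpoints. Here, GI50 denotes the concentration required for 50% inhibition of growth.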 Active and inactive are the calls of the source. Cut-off read from the data, not from the text of the source: active = GI50 up to about 1.1 µM and inactive = higher.
What was measured:
Test in all cases: NCI-60 cell line screen, 48 h
[1] = system: A549
[2] = system: RXF 393
[3] = system: CCRF-CEM
[4] = system: CAKI-1
[5] = system: RPMI-8226
[6] = system: OVCAR-3
[7] = system: HL-60
[8] = system: UO-31
[9] = system: EKVX
[10] = system: HCC 2998
[11] = system: IGROV-1
[12] = system: NCI-H23
[13] = system: NCI-H522
[14] = system: U-251
[15] = system: SK-MEL-5
[16] = system: KM12
[17] = system: HOP-62
[18] = system: NCI-H226
[19] = system: SF-539

For `CCOC(=O)C(=O)Nc1ccccc1CC`, the GI50 [1] was > 100 µM (inactive), the GI50 [2] was > 100 µM (inactive) and the GI50 [3] was > 100 µM (inactive). The GI50 [4] was > 100 µM (inactive), the GI50 [5] was > 100 µM (inactive) and the GI50 [6] was > 100 µM (inactive). For the same compound, the GI50 [7] was > 100 µM (inactive), the GI50 [8] was > 100 µM (inactive) and the GI50 [9] was > 100 µM (inactive). For the same compound, the GI50 [10] was > 100 µM (inactive), the GI50 [11] was > 100 µM (inactive) and the GI50 [12] was > 100 µM (inactive). The GI50 [13] was > 100 µM (inactive), the GI50 [14] was > 100 µM (inactive) and the GI50 [15] was > 100 µM (inactive). The GI50 [16] was > 100 µM (inactive), the GI50 [17] was > 100 µM (inactive) and the GI50 [18] was > 100 µM (inactive). The GI50 [19] was > 100 µM (inactive).
For `CC1=C(C(=O)Nc2ccccc2)C(c2ccc3c(c2)OCO3)C(C(=O)Nc2ccccc2)=C(C)N1`, the GI50 [1] was 49.5 µM (inactive), the GI50 [2] was 11.1 µM (inactive) and the GI50 [3] was 15.2 µM (inactive). For the same compound, the GI50 [4] was 31.3 µM (inactive), the GI50 [5] was 23.1 µM (inactive) and the GI50 [6] was 22.7 µM (inactive). For the same compound, the GI50 [7] was 18.1 µM (inactive), the GI50 [8] was 29.5 µM (inactive) and the GI50 [9] was 53.3 µM (inactive). The GI50 [10] was 44.6 µM (inactive), the GI50 [11] was 60.7 µM (inactive) and the GI50 [12] was 37.2 µM (inactive). The GI50 [13] was 17 µM (inactive), the GI50 [15] was 33.7 µM (inactive) and the GI50 [16] was 28.5 µM (inactive). For the same compound, the GI50 [17] was 41.8 µM (inactive), the GI50 [18] was 39.6 µM (inactive) and the GI50 [19] was 26.5 µM (inactive).
`OCc1ccccc1C1CSCSC1` was tested, and the GI50 [1] was > 100 µM (inactive), the GI50 [2] was > 100 µM (inactive) and the GI50 [3] was > 100 µM (inactive). For the same compound, the GI50 [6] was > 100 µM (inactive), the GI50 [7] was > 100 µM (inactive) and the GI50 [8] was > 100 µM (inactive). The GI50 [13] was > 100 µM (inactive), the GI50 [14] was > 100 µM (inactive) and the GI50 [15] was > 100 µM (inactive). The GI50 [16] was > 100 µM (inactive), the GI50 [18] was > 100 µM (inactive) and the GI50 [19] was > 100 µM (inactive).
With `N#CCC(=O)N/N=C1/C(=O)N(c2ccc(Cl)cc2)C(=O)C(=O)C1c1nc2ccccc2s1` (configuration not stated) the GI50 [1] was > 100 µM (inactive), the GI50 [2] was 25.8 µM (inactive) and the GI50 [4] was > 100 µM (inactive). For the same compound, the GI50 [6] was > 100 µM (inactive), the GI50 [8] was 28.5 µM (inactive) and the GI50 [9] was 89.3 µM (inactive). The GI50 [10] was > 100 µM (inactive), the GI50 [11] was > 100 µM (inactive) and the GI50 [12] was > 100 µM (inactive). For the same compound, the GI50 [13] was 46.3 µM (inactive), the GI50 [14] was > 100 µM (inactive) and the GI50 [15] was > 100 µM (inactive). For the same compound, the GI50 [16] was > 100 µM (inactive), the GI50 [17] was > 100 µM (inactive) and the GI50 [18] was 26.3 µM (inactive).
For `C=CC[N+](CCO)(CCO)CCCCCCCCCCCCCCCCCC`, the GI50 [1] was 11.3 µM (inactive), the GI50 [2] was 2.19 µM (inactive) and the GI50 [3] was 1.23 µM (inactive). For the same compound, the GI50 [4] was 4.46 µM (inactive), the GI50 [5] was 2.25 µM (inactive) and the GI50 [6] was 5.11 µM (inactive). For the same compound, the GI50 [7] was 0.714 µM (active), the GI50 [8] was 9.62 µM (inactive) and the GI50 [9] was 17 µM (inactive). The GI50 [10] was 3.23 µM (inactive), the GI50 [11] was 1.97 µM (inactive) and the GI50 [12] was 12.5 µM (inactive). For the same compound, the GI50 [13] was 3.77 µM (inactive), the GI50 [14] was 1.97 µM (inactive) and the GI50 [15] was 8.13 µM (inactive). For the same compound, the GI50 [16] was 1.99 µM (inactive), the GI50 [17] was 6.38 µM (inactive) and the GI50 [18] was 7.78 µM (inactive). For the same compound, the GI50 [19] was 3.54 µM (inactive).
In the case of `CCOC(=O)C1(Cc2ccc3ccccc3c2)CCCCC(=O)N1` (configuration not stated), the GI50 [1] is reported as 39.1 µM (inactive), the GI50 [2] is reported as > 100 µM (inactive) and the GI50 [3] is reported as 23.3 µM (inactive). The GI50 [4] was 43.1 µM (inactive), the GI50 [5] was 3.78 µM (inactive) and the GI50 [6] was 17.5 µM (inactive). The GI50 [7] was 12.1 µM (inactive), the GI50 [8] was 23.9 µM (inactive) and the GI50 [9] was 54.8 µM (inactive). The GI50 [10] was 8.67 µM (inactive), the GI50 [11] was 57 µM (inactive) and the GI50 [12] was 26 µM (inactive). For the same compound, the GI50 [14] was 41.1 µM (inactive) and the GI50 [17] was 44.6 µM (inactive).
For `C=CCCCCn1c2ccccc2c2c(C)c3cnccc3c(C)c21`, the GI50 [1] was 8.99 µM (inactive), the GI50 [2] was 6.25 µM (inactive) and the GI50 [3] was 4.04 µM (inactive). The GI50 [4] was 8.69 µM (inactive), the GI50 [5] was 2.81 µM (inactive) and the GI50 [6] was 4.99 µM (inactive). For the same compound, the GI50 [7] was 2.07 µM (inactive), the GI50 [8] was 5.75 µM (inactive) and the GI50 [9] was 12.9 µM (inactive). The GI50 [10] was 10.1 µM (inactive), the GI50 [11] was 11.7 µM (inactive) and the GI50 [12] was 4.63 µM (inactive). The GI50 [13] was 3.97 µM (inactive), the GI50 [14] was 12.5 µM (inactive) and the GI50 [15] was 5.08 µM (inactive). The GI50 [16] was 8.47 µM (inactive), the GI50 [17] was 16.2 µM (inactive) and the GI50 [18] was 10.9 µM (inactive). The GI50 [19] was 12.5 µM (inactive).
In the case of `Nc1c(/N=N/c2ccc(-c3ccc(/N=N/c4c(O)ccc5cc(S(=O)(=O)O)cc(S(=O)(=O)O)c45)cc3)cc2)c(S(=O)(=O)O)cc2cc(S(=O)(=O)O)c(/N=N/c3ccccc3)c(O)c12`, the GI50 [1] is reported as > 70.8 µM (inactive), the GI50 [2] is reported as > 100 µM (inactive) and the GI50 [3] is reported as > 100 µM (inactive). For the same compound, the GI50 [5] was > 100 µM (inactive), the GI50 [6] was > 100 µM (inactive) and the GI50 [7] was 85.1 µM (inactive). For the same compound, the GI50 [8] was 6.84 µM (inactive), the GI50 [9] was > 100 µM (inactive) and the GI50 [10] was > 100 µM (inactive). The GI50 [11] was > 100 µM (inactive), the GI50 [12] was > 96.8 µM (inactive) and the GI50 [13] was > 100 µM (inactive). For the same compound, the GI50 [14] was > 100 µM (inactive), the GI50 [15] was > 100 µM (inactive) and the GI50 [16] was > 100 µM (inactive). The GI50 [17] was > 100 µM (inactive), the GI50 [18] was 19.6 µM (inactive) and the GI50 [19] was > 100 µM (inactive).
With `CC1=C(C(=O)Nc2cccc(Cl)c2)C(c2ccc([N+](=O)[O-])cc2)C(C(=O)Nc2cccc(Cl)c2)=C(C)N1` the GI50 [1] was 28.9 µM (inactive), the GI50 [2] was 19.5 µM (inactive) and the GI50 [3] was 10.9 µM (inactive). The GI50 [5] was 15.5 µM (inactive), the GI50 [6] was 25.6 µM (inactive) and the GI50 [7] was 17.9 µM (inactive). The GI50 [8] was 17.7 µM (inactive), the GI50 [9] was 33.3 µM (inactive) and the GI50 [10] was 17.9 µM (inactive). For the same compound, the GI50 [11] was 26.5 µM (inactive), the GI50 [12] was 21.3 µM (inactive) and the GI50 [13] was 26.3 µM (inactive). The GI50 [14] was 15.8 µM (inactive), the GI50 [15] was 17.5 µM (inactive) and the GI50 [16] was 21.4 µM (inactive). The GI50 [17] was 29 µM (inactive), the GI50 [18] was 26.9 µM (inactive) and the GI50 [19] was 39.8 µM (inactive).
With `C/C=C/c1cc2c(c(=O)o1)C(=O)[C@@H](O)[C@H](C)O2` the GI50 [1] was 19.7 µM (inactive), the GI50 [2] was 12.3 µM (inactive) and the GI50 [3] was 5.46 µM (inactive). For the same compound, the GI50 [4] was 17.3 µM (inactive), the GI50 [5] was 4.09 µM (inactive) and the GI50 [6] was 17.7 µM (inactive). For the same compound, the GI50 [7] was 4.32 µM (inactive), the GI50 [8] was 19.7 µM (inactive) and the GI50 [9] was 17.2 µM (inactive). The GI50 [10] was 10.3 µM (inactive), the GI50 [11] was 8.32 µM (inactive) and the GI50 [12] was 17 µM (inactive). The GI50 [13] was 7.91 µM (inactive), the GI50 [14] was 17.6 µM (inactive) and the GI50 [15] was 15 µM (inactive). The GI50 [16] was 14.4 µM (inactive), the GI50 [17] was 26.5 µM (inactive) and the GI50 [18] was 16.9 µM (inactive). The GI50 [19] was 18.6 µM (inactive).
With `O=Cc1cccc2ccc3ccccc3c12` the GI50 [1] was 24.3 µM (inactive), the GI50 [2] was 16.3 µM (inactive) and the GI50 [4] was 16.1 µM (inactive). For the same compound, the GI50 [6] was 12.9 µM (inactive), the GI50 [8] was 24 µM (inactive) and the GI50 [10] was 26.2 µM (inactive). The GI50 [12] was 25.1 µM (inactive), the GI50 [13] was 13.8 µM (inactive) and the GI50 [14] was 5.93 µM (inactive). For the same compound, the GI50 [15] was 16.9 µM (inactive), the GI50 [16] was 4.02 µM (inactive) and the GI50 [17] was 15.9 µM (inactive). The GI50 [18] was 24.7 µM (inactive) and the GI50 [19] was 5.86 µM (inactive).
With `OC1CSCCSCCCSCCSC1` the GI50 [1] was > 100 µM (inactive), the GI50 [2] was > 100 µM (inactive) and the GI50 [4] was > 100 µM (inactive). The GI50 [5] was > 100 µM (inactive), the GI50 [6] was > 100 µM (inactive) and the GI50 [7] was 50.2 µM (inactive). For the same compound, the GI50 [8] was > 100 µM (inactive), the GI50 [9] was > 100 µM (inactive) and the GI50 [10] was > 100 µM (inactive). For the same compound, the GI50 [11] was > 100 µM (inactive), the GI50 [12] was > 100 µM (inactive) and the GI50 [13] was > 100 µM (inactive). For the same compound, the GI50 [14] was > 100 µM (inactive), the GI50 [15] was > 100 µM (inactive) and the GI50 [17] was > 100 µM (inactive). The GI50 [18] was > 100 µM (inactive) and the GI50 [19] was > 100 µM (inactive).

— ChEMBL document CHEMBL1201862, “PubChem BioAssay data set” (2004)
